Test results from patent US20080161245A1, “Protein-Binding Anthracycline Peptide Derivatives and Drugs Containing Them” (KTB Tumorforschungsgesellschaft mbH, priority 2005, published 2008).
*: point of attachment. Hexanoyl(6-maleimido) = O=C1C=CC(=O)N1CCCCCC(=O)*

Assays:
[1] = target: T1, cysteine-34 position of endogenous albumin (Homo sapiens, UniProt P02768); experiment: Incubation study with human plasma (binding to albumin, HPLC); conditions: 37° C., 100 μM, after 5 and 90 minutes, FIG. 4
T1 construct: cysteine-34 position of endogenous albumin in blood plasma; from tissue; host or cells: human blood plasma
Description: FIG. 4 is chromatogram of an incubation study of compound 3 with human plasma at 37° C. after 5 and 90 minutes. Chromatogram of an incubation study of compound 3 with human plasma at 37° C. after 5 and 90 minutes. The concentration of the anthracycline was 100 μM. HPLC chromatography conditions: see FIG. 3.

[2] = test system: PSA-positive xenograft model CWR22; experiment: In-vivo activity in the PSA-positive xenograft model (CWR22); design: species or system hairless mice
Description: The course of the tumor growth of the subcutaneously growing PSA-positive xenograft model CWR22, which was treated with structure 3 [dose (i.v.): 2×13.3 μmol/kg (=2×8 mg/kg doxorubicin equivalents) on days 13 and 20; 3×39.9 μmol/kg (=3×24 mg/kg doxorubicin equivalents) on days 13, 20, and 27; and 3×59.9 μmol/kg (=3×36 mg/kg doxorubicin equivalents) on days 13, 20, and 27] is shown in FIG. 6.
Animals: hairless mice. Stock solution of compound 3:6.0 mg/mL in 10 mM sodium phosphate, 5% D-glucose (pH 6.4); control (buffer): glucose-phosphate buffer (10 mM sodium phosphate, 5% D-glucose—pH 6.4) on days 13 and 20.
The course of the tumor growth of the subcutaneously growing PSA-positive xenograft model CWR22, which was treated with structure 1 [dose (i.v.): 2×13.3 μmol/kg (=2×8 mg/kg doxorubicin equivalents) on days 13 and 20; 3×26.3 μmol/kg (=3×16 mg/kg doxorubicin equivalents) or with buffer (control) on days 13 and 20], is shown in FIG. 7.
Animals: hairless mice. Stock solution of compound 1:7.4 mg/mL in 10 mM sodium phosphate, 5% D-glucose (pH 6.4); control (buffer): glucose-phosphate buffer (10 mM sodium phosphate, 5% D-glucose—pH 6.4) on days 13 and 20.

CWR22 tissue homogenate = experiment: Cleavage study of the doxorubicin dipeptide with CWR22 tissue homogenate (HPLC); format: in vitro ADME; conditions: pH 7.4, 37° C., anthracycline 100 μM, 5 minutes, 6 hours, 20 hours, FIG. 2
Description: FIG. 2 is chromatogram of a cleavage study of the doxorubicin-dipeptide Doxo-Arg-Ser with PSA-positive prostate carcinoma CWR22. Chromatogram of an incubation study of the cleaved doxorubicin-dipeptide [Doxo-Arg-Ser] with CWR22 homogenate recorded at 37° C. after 0 hours, 6 hours, and 20 hours. The concentration of anthracycline was […]. HPLC conditions: see FIG. 1. The CWR22 homogenate (250 mg/l mL) was produced by homogenization of CWR22 xenograft tumors in 50 mM tris-HCl buffer at pH 7.4 containing 1 mM monothioglycerol.
An incubation study at 37° C. with CWR22 tissue homogenate at pH 7.4 was conducted with the doxorubicin dipeptide (Doxo-Arg-Ser) obtained as described in Example 2. The concentration of anthracycline was 100 μM. HPLC chromatography was conducted under the conditions of Example 2 after 5 minutes, 6 hours, and 20 hours.

Substance | binding to albumin in blood plasma [1] | antitumoral effect (relative tumor volume) ([2]; i.v. 2×13.3 μmol/kg on days 13 and 20, 3×26.3 μmol/kg, subcutaneous CWR22, FIG. 7) | antitumoral effect (relative tumor volume) ([2]; i.v. 2×13.3, 3×39.9 and 3×59.9 μmol/kg on days 13, 20 (27), subcutaneous CWR22, FIG. 6) | cleavage in tumor tissue homogenate (CWR22 tissue homogenate)
EMC-Arg-Arg-Ser-Ser-Tyr-Tyr-Ser-Gly-Doxo ({Hexanoyl(6-maleimido)}-RRSSYYSG-doxorubicin) [compound 3] | binds selectively within a few minutes | good antitumoral effect | good antitumoral effect | –
Doxo-Arg-Ser | – | – | – | cleaved to doxorubicin in tumor tissue
